From paper PMC3416781, “Functional Characterizations of Chemosensory Proteins of the Alfalfa Plant Bug Adelphocoris lineolatus Indicate Their Involvement in Host Recognition” (PLoS ONE, 2012)
“And” between values parts separate entries of the source, which are not always exact repeats. Equal entries are not always repeated. Where two headings read alike, the source gives them in different places.

Key:
[1] = target: AlinCSP1 (Adelphocoris lineolatus, UniProt J7EJ71); experiment: biochemical; assay type: binding
Chain of AlinCSP1 (J7EJ71 entry or part of it): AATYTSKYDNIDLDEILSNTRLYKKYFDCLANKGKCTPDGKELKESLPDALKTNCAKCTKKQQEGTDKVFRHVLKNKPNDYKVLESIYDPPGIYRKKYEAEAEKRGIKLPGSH
Experimental: (§1) Fluorescence binding assays were performed on an F-380 fluorescence spectrophotometer (Tianjin, China) in a 1 cm light path quartz cuvette. The slit width used for excitation and emission was both 10 nm. The fluorescent probe N-phenyl-1-naphthylamine (1-NPN) was dissolved in methanol with a 1 mM stock solution. 1-NPN was excited at 337 nm and emission spectra were recorded between 390 nm and 530 nm.
(§2) All values reported were obtained from three independent measurements.
(§3) For determining binding constants, the intensity values corresponding to the maximum fluorescence emission were plotted against free ligand concentration. Bound ligand was evaluated from the values of fluorescence intensity assuming the protein was 100% active, with a stoichiometry of 1∶1 protein:ligand at saturation. The curves were linearized using Scatchard Plot.

[2] = target: AlinCSP2 (Adelphocoris lineolatus, UniProt E7BLG5); experiment: biochemical; assay type: binding
Chain of AlinCSP2 (E7BLG5 entry or part of it): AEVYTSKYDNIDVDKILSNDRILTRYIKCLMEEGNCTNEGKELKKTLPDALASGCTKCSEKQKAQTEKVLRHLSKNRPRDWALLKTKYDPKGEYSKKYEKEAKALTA
Experimental: as §1, §2, §3

[3] = target: AlinCSP3 (Adelphocoris lineolatus, UniProt E7BLG4); experiment: biochemical; assay type: binding
Chain of AlinCSP3 (E7BLG4 entry or part of it): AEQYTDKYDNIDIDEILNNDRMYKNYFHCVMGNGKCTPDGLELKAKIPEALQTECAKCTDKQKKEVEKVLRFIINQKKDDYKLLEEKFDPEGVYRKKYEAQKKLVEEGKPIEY
Experimental: as §1, §2, §3

[4] = system: A. lineolatus antennae; experiment: Electroantennogram (EAG) recordings; parameters: species or system Adelphocoris lineolatus; conditions: normalized to 2-octanone; for EAG response, male versus female antennae: Student t-test between sexes
Description: Electrophysiological (EAG) recordings from each sex of adult individuals were made using Ag-AgCl glass pipette electrodes filled with 3 M KCl solution [69], [70]. The insects were anaesthetized by chilling, the antenna was amputated at the base and the tip of the antenna was cut off. The excised antenna was mounted between the electrodes by one teardrop of Spectra R360 electrically conductive gel (Syntech, Netherlands). The base of the antenna was connected to the reference electrode, while the terminal of tip-cut off antenna was connected to the recording electrode. An air stimulus controller CS-55 (Syntech, Netherlands) was used for air and chemical stimulants delivery with a constant flow of 10 ml/second flowed continuously over the antenna through the open end of the glass tube, which was positioned 1 cm from the antenna.
Twenty microliters of tested chemicals (100 µl/ml, 10% (v/v) dilution in paraffin oil except the hexadecanoic acid dissolved in hexane with 100 µg/ml) were applied to filter paper strips (1.5 cm×4 cm, Whatman No.1), and the solvent was allowed to evaporate for 30 sec before the paper strip was inserted into the glass Pasteur pipette cartridge (10 cm long, Fisher Scientific, Pittsburgh, Pennsylvania, USA). The chemicals were tested randomly, stimulus duration time was 0.5 second and an interval of at least 30 seconds was taken between stimulations for antennal recovery. Chemical odorants used for the EAG recordings are the same as used in the binding assays. […] The paraffin oil (Fluka, Buchs, Switzerland) was used to dissolve the chemicals and treated as control compound [71]. Each chemical was tested against six individual male and female antennae, and each antenna was tested three times. The signals were passed through a high impedance amplifier (CS-05 model, Syntech, the Netherlands), EAG responses were initially measured in millivolts (peak height of depolarization) and then converted to normalized responses by the Syntech EAG 2000 program (Syntech, the Netherlands). Response to the solvent control was subtracted from all normalized response and the normalized EAG responses were expressed as a percentage to the reference compound response. All results are presented as mean (±SE) normalized EAG responses. EAG responses between male and female individuals were compared with the Student t-test using SAS software.

[5] = 1-NPN and protein at 2 µM, 50 mM Tris-HCl pH 7.4, KD calculated from IC50, mean of three measurements, read-out: KD (µM) AlinCSP1
[6] = 1-NPN and protein at 2 µM, 50 mM Tris-HCl pH 7.4, KD calculated from IC50, mean of three measurements, read-out: KD (µM) AlinCSP2
[7] = 1-NPN and protein at 2 µM, 50 mM Tris-HCl pH 7.4, KD calculated from IC50, mean of three measurements, read-out: KD (µM) AlinCSP3
[8] = KD (µM) AlinCSP1, 1-NPN and protein at 2 µM, 50 mM Tris-HCl pH 7.4, KD calculated from IC50, mean of three measurements
[9] = KD (µM) AlinCSP2, 1-NPN and protein at 2 µM, 50 mM Tris-HCl pH 7.4, KD calculated from IC50, mean of three measurements
[10] = KD (µM) AlinCSP3, 1-NPN and protein at 2 µM, 50 mM Tris-HCl pH 7.4, KD calculated from IC50, mean of three measurements
[11] = u.d. = KD not calculated because IC50>50 µM, read-out: KD (µM) AlinCSP1, given as u.d.
[12] = u.d. = KD not calculated because IC50>50 µM, read-out: KD (µM) AlinCSP2, given as u.d.
[13] = u.d. = KD not calculated because IC50>50 µM, read-out: KD (µM) AlinCSP3, given as u.d.
[14] = KD (µM) AlinCSP1, given as u.d., u.d. = KD not calculated because IC50>50 µM
[15] = KD (µM) AlinCSP2, given as u.d., u.d. = KD not calculated because IC50>50 µM
[16] = KD (µM) AlinCSP3, given as u.d., u.d. = KD not calculated because IC50>50 µM

Row | Compound | Kd [1, 5] | Kd [3, 7] | Kd [1, 11] | Kd [2, 12] | Kd [3, 13] | other results
1 | C=CC(C)(O)CCC=C(C)CCC=C(C)C (mixture of isomers) [Nerolidol] | 28.1 ± 1.26 µM | 22.4 ± 1.33 µM | – | – | – | Kd [2, 6]: 24.4 ± 1.36 µM
2 | CC1(C)[C@@H]2CC[C@@]1(C)[C@H](O)C2 (racemic) [Isoborneol] | – | – | – | – | – | Kd [1, 8]: 24.2 ± 1.42 µM; Kd [2, 9]: 21.1 ± 2.04 µM; Kd [3, 10]: 28.6 ± 1.68 µM
3 | Cc1cccc(C(=O)O)c1C [2,3-Dimethylbenzoic acid] | – | – | > 50 µM | > 50 µM | > 50 µM | –
4 | CCCCC(CC)CO (centres unmarked) [2-Ethyl-1-hexanol] | – | – | > 50 µM | > 50 µM | > 50 µM | –
5 | CCCCCC(C)=O [2-Heptanone] | 42.9 ± 2.89 µM | 41.2 ± 2.56 µM | – | > 50 µM | – | EAG response, male versus female antennae [4]: significantly higher EAG responses from female antennae than from male antennae
6 | CCCCC(C)O (centres unmarked) [2-Hexanol] | 45.4 ± 2.43 µM | 37.1 ± 1.01 µM | – | > 50 µM | – | EAG response, male versus female antennae [4]: significantly higher EAG responses from female antennae than from male antennae
7 | CCCCC(C)=O [2-Hexanone] | – | – | – | – | – | Kd [1, 8]: 19.5 ± 1.73 µM; Kd [2, 9]: 20.4 ± 1.82 µM; Kd [3, 10]: 22.5 ± 1.88 µM; EAG response, male versus female antennae [4]: significantly higher EAG responses from male antennae than from female antennae
8 | CCCCCCCC(C)=O [2-Nonanone] | – | – | > 50 µM | – | > 50 µM | Kd [2, 6]: 42.4 ± 2.21 µM
9 | CCCCCCC(C)O (centres unmarked) [2-Octanol] | – | – | > 50 µM | – | > 50 µM | Kd [2, 6]: 39.5 ± 2.11 µM
10 | CCCCCCC(C)=O [2-Octanone] | – | 39.5 ± 1.91 µM | > 50 µM | > 50 µM | – | –
11 | CCCCCCCCCC(C)O (centres unmarked) [2-Undecanol] | – | – | > 50 µM | > 50 µM | > 50 µM | –
12 | Cc1ccc(C=O)cc1C [3,4-Dimethyl-benzaldehe, 3,4-Dimethyl-benzaldehyde] | – | – | > 50 µM | > 50 µM | > 50 µM | EAG response, male versus female antennae [4]: significantly higher EAG responses from female antennae than from male antennae
13 | CC(C)=CCCC(C)CCO (stereo not drawn) [(-)-β-Citronellol] | – | 43.5 ± 0.99 µM | > 50 µM | > 50 µM | – | –
14 | CCC/C=C/C=O [(E)-2-Hexen-1-al] | – | – | – | – | – | Kd [1, 8]: 11.3 ± 1.07 µM; Kd [2, 9]: 13.2 ± 2.05 µM; Kd [3, 10]: 14.5 ± 2.59 µM; EAG response in words ([4]; male and female adult antennae, 10% (v/v) in paraffin oil, good ligand = more than 50% of 2-octanone response): elicited significant antennal responses from both male and female
15 | CCCCC/C=C\CCO [(Z)-3-Nonen-1-ol] | 21.5 ± 1.17 µM | 25.5 ± 1.67 µM | – | – | – | Kd [2, 6]: 26.4 ± 1.87 µM
16 | C=C/C(C)=C\CC=C(C)C [(Z)−ocimene] | 28.6 ± 1.71 µM | 22.2 ± 1.01 µM | – | – | – | Kd [2, 6]: 25.1 ± 0.93 µM
17 | O=Cc1ccccc1 [Benzaldehyde] | – | – | – | – | – | Kd [1, 8]: 27.5 ± 1.96 µM; Kd [2, 9]: 28 ± 2.11 µM; Kd [3, 10]: 24 ± 1.76 µM
18 | CCCCOC(C)=O [Butyl acetate] | – | – | – | – | – | Kd [1, 8]: 26.6 ± 1.87 µM; Kd [2, 9]: 41.2 ± 2.89 µM; Kd [3, 10]: 34.5 ± 2.79 µM
19 | C=CC(=O)OCCCC [Butyl acrylate] | – | – | – | – | – | Kd [1, 8]: 38.5 ± 1.69 µM; Kd [2, 9]: 28.1 ± 2.37 µM; Kd [3, 10]: 40.2 ± 2.88 µM
20 | CCCCOC(=O)CCC [Butyl butyrate] | – | – | > 50 µM | > 50 µM | > 50 µM | –

Row | Compound | Kd [1, 5] | Kd [3, 7] | Kd [1, 11] | Kd [2, 12] | Kd [3, 13] | other results
21 | CC(C)=CCC/C(C)=C/C=O [Citral] | – | – | – | – | – | Kd [1, 14]: > 50 µM; Kd [2, 15]: > 50 µM; Kd [3, 16]: > 50 µM
22 | CCCCCCCCCC=O [Decanal] | – | 42.3 ± 2.76 µM | > 50 µM | – | – | Kd [2, 6]: 45.9 ± 1.71 µM
23 | CCCCCCCCCCCC=O [Dodecanal] | – | – | > 50 µM | > 50 µM | > 50 µM | –
24 | CCCCCCCCCCCC [Dodecane] | – | – | > 50 µM | > 50 µM | > 50 µM | –
25 | CCCCCCC(=O)OCC [Ethyl heptanoate] | 25.3 µM and 43.2 µM | 38.3 µM and 35.3 µM | – | – | – | Kd [2, 6]: 45.3 µM and 38.3 µM
26 | CCOC(=O)Cc1ccccc1 [Ethyl phenylacetate] | – | – | – | – | – | Kd [1, 8]: 27.3 ± 2.02 µM; Kd [2, 9]: 25.3 ± 1.98 µM; Kd [3, 10]: 24.4 ± 1.32 µM
27 | CCCCCCOC(=O)CCC [Hexyl butyrate] | 46.8 ± 1.85 µM | – | – | > 50 µM | > 50 µM | –
28 | CCCCCCOC(=O)CCCCC [Hexyl hexanoate] | 44.7 ± 2.38 µM | 43.8 ± 1.98 µM | – | > 50 µM | – | –
29 | c1ccc2[nH]ccc2c1 [Indole] | – | – | – | – | – | Kd [1, 8]: 27.1 ± 1.91 µM; Kd [2, 9]: 22.4 ± 2.01 µM; Kd [3, 10]: 24.6 ± 2.16 µM
30 | C=C(C)[C@H]1CC=C(C)CC1 [Limonene] | – | – | > 50 µM | > 50 µM | > 50 µM | –
31 | C=CC(C)(O)CCC=C(C)C (centres unmarked) [Linalool] | – | – | – | – | – | Kd [1, 14]: > 50 µM; Kd [2, 9]: 46.2 ± 2.35 µM; Kd [3, 16]: > 50 µM
32 | COC(=O)Cc1ccccc1 [Methyl phenylacetate] | – | – | – | – | – | Kd [1, 8]: 32.1 ± 1.85 µM; Kd [2, 9]: 30.6 ± 1.92 µM; Kd [3, 10]: 22.2 ± 0.87 µM
33 | CCCCCCCCC=O [Nonanal] | 43.6 ± 1.11 µM | – | – | > 50 µM | > 50 µM | –
34 | CCCCCCCCC [Nonane] | – | – | > 50 µM | > 50 µM | > 50 µM | –
35 | CCCCCCCCCOC(C)=O [Nonyl acetate] | 23.6 ± 1.6 µM | 46.5 ± 3.07 µM | – | – | – | Kd [2, 6]: 29.2 ± 2.19 µM
36 | CCCCC [Pentane] | 42.2 ± 1.95 µM | 35.6 ± 2.61 µM | – | – | – | Kd [2, 6]: 39.5 ± 2.54 µM
37 | CCCCCCCCCCCCCC [Tetradecane] | – | 46.2 ± 2.76 µM | > 50 µM | > 50 µM | – | –
38 | CCCCCCCCCCCCCCO [Tetradecanol] | – | – | > 50 µM | – | > 50 µM | Kd [2, 6]: 35.8 ± 3.01 µM
39 | CC1=CC=C(C(C)C)CC1 [α-Terpinene] | – | – | – | – | – | Kd [1, 14]: > 50 µM; Kd [2, 15]: > 50 µM; Kd [3, 10]: 45.5 ± 2.06 µM
40 | (+)-α-Pinene | 31.7 ± 0.98 µM | 27.2 ± 1.02 µM | – | – | – | Kd [2, 6]: 30.6 ± 0.71 µM
